Experimental data published in patent publication US8829196B2, “TRPA1 antagonists” (Merck Sharp & Dohme Corp., priority 2009, dated 2014).

Molecular target: T1, human TRPA1 (Homo sapiens, UniProt O75762, K186N/R3C/R58T)
T1 construct: host or cells: HEK293 FlpIn
Experiment: High Throughput Calcium Imaging Assay (FLIPR, cinnamaldehyde-activated Ca2+ influx)
Type: cell-based
Conditions: HEK293 FlpIn cells stably expressing human TRPA1; EC60 cinnamaldehyde; Fluo-4AM; read-out: TRPA1 hFLIPR IC50
Text: The assay was dependent on detecting the change in intracellular Ca2+ concentration following activation of the channel in cells stably expressing the TRPA1 channel. Activation of the TRPA1 channel was followed by Ca2+ influx. Ca2+ increase was quantified through the use of a fluorescent Ca2+ indicator that was loaded into the cells. Compounds which inhibited Ca2+ increase were considered “hits” warranting additional examination.
The HEK293 FlpIn cell line (Invitrogen) was stably transfected as per the manufacturers guidelines with a construct encoding a human TRPA1 protein with the amino acid sequence depicted in SEQ ID NO: 1. The resulting cell line was maintained in the growth medium recommended by the manufacturer and supplemented with 100 ug/mL Hygromycin B to promote the selection of cells stably expressing the TRPA1 channel. After growing to confluency, cells were plated at a density of 24,000 cells/well in 384 well Black/Clear Microtest plates (Falcon) in the recommended growth medium supplemented with hygromycin, and allowed to grow for 20-24 hours resulting in a ˜90% confluent monolayer of cells. Cells were then loaded with assay buffer containing the Ca2+ dye Fluo-4AM (Invitrogen) to a final concentration of 4 uM, and incubated for 60 minutes at room temperature in the dark. The assay buffer consisted of 138 mM NaCl, 5.33 mM KCl, 1.26 mM CaCl2, 0.49 mM MgCl2, 0.41 mM MgSO4 5.56 mM D-glucose, 0.44 mM KH2PO4, 0.34 mM Na2HPO4, 20 mM HEPES, 2.5 mM Probenecid, and 4% TR-40; pH 7.8. Following 1 hour dye loading, cells were assayed using the FLIPR TETRA (Molecular Devices) which permits excitation of the Fluo-4AM dye, and subsequent recording of emission spectra according to the manufacturer's guidelines. A total of 5 baseline readings were acquired prior to each reagent addition, after which, readings were acquired at a rate of 1 every 3 seconds for 195 seconds, and then 1 every 10 seconds for an additional 420 seconds. During the assay, reagents were added and mixed after each addition by the FLIPR TETRA pippetor. EC60 concentration of Cinnamaldehyde was determined before the screening assay, and used as the activating concentration henceforth. For the screening assay, the baseline reading was taken, followed by addition of 10 uL of a compound stock at six-times the final concentration, followed by 615 seconds of read time as previously described. Following baseline readings, 10 μl, of six-times final concentration Cinnamaldehyde was added to each well, achieving a final concentration of 10 uM compound, and on average, 12 uM Cinnamaldehyde (depending on the EC60 derived during that experiment). Following addition of Cinnamaldehyde, readings were taken for 615 seconds as previously described. Negative controls consisted of HEK293 FlpIn TRPA1 cells exposed to compound vehicle and then Cinnamaldehyde. […] “Hits” were identified as compounds which inhibited the fluorescence response in the presence of Cinnamaldehyde as compared to the negative and positive controls. IC50 values were determined for compounds defined as “hits” which reached fully inhibition. This cell-based fluorescence assay was used to determine Ca2+ influx through the channel in the presence of compound at the following concentrations: 10 uM, 3.33 uM, 1.11 uM, 0.37 uM, 0.12 uM, 0.041 uM, 0.014 uM, 0.0046 uM, 0.0015 uM, and 0.00051 uM.

T1 sequence (O75762 whole entry R3C/R58T/K186N): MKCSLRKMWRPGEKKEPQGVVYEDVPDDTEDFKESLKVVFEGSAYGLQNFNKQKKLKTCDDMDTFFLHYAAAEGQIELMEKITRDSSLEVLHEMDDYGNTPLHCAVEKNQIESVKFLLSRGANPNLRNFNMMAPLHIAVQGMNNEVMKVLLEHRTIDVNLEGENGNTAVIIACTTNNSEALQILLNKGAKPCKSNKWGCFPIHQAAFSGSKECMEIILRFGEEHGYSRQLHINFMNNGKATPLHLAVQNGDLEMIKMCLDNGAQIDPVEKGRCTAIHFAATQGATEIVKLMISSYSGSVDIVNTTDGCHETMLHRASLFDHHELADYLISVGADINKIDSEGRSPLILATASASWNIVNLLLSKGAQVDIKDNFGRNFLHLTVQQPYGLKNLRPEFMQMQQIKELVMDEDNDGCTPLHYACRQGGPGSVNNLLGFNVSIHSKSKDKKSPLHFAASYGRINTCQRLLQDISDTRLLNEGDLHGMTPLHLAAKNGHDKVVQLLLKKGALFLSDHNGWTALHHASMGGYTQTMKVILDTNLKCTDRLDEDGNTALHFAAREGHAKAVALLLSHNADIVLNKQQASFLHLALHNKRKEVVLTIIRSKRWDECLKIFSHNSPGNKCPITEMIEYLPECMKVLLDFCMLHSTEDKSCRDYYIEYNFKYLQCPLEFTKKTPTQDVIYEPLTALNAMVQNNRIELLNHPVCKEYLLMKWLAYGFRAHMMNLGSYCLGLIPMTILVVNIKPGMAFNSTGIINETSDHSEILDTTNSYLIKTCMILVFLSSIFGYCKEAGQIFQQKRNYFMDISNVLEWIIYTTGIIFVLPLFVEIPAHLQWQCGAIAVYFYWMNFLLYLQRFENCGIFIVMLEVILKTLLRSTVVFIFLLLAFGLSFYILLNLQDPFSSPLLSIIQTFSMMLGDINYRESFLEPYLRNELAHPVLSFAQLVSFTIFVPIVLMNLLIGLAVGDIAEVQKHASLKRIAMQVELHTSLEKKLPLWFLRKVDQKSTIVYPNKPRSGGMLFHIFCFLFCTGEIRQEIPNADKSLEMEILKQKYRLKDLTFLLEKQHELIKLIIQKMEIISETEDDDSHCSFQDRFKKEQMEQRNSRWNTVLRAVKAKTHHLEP

IC50	Structure (SMILES)
850 nM	O[C@@]12CCCO[C@H]1CCC[C@@H]2Nc1ccc(F)cc1 (stereo in doubt) [(4aR,5S,8aS)-5-[(4-fluorophenyl)amino]hexahydro-2H-chromen-4a(5H)-ol]
520 nM	O[C@]12CCCO[C@H]1CCC[C@H]2Nc1ccc(F)cc1 [(4aS,5R,8aS)-5-[(4-fluorophenyl)amino]hexahydro-2H-chromen-4a(5H)-ol]
19 nM	O[C@]12CCCC[C@@H]1CCC[C@H]2Nc1ccc(F)cc1 [(4aR,8aR)-4-[(4-fluorophenyl)amino]octahydronaphthalen-4a(2H)-ol]
54 nM	O[C@]12CCCC[C@@H]1CCC[C@H]2Nc1ccccc1 [(4R,4aR,8aR)-4-(phenylamino)octahydronaphthalen-4a(2H)-ol]
35 nM	COC[C@@H]1CCC(Nc2ccc(F)cc2)C2(O)CCCO[C@H]12 (stereo in doubt) [(4aR,5S)-5-[(4-fluorophenyl)amino]-8-(methoxymethyl)hexahydro-2H-chromen-4a(5H)-ol]
